Laboratory results published in article PMC6225212, “Synthesis and Pharmacological Evaluation of Novel Silodosin-Based Arylsulfonamide Derivatives as α1A/α1D-Adrenergic Receptor Antagonist with Potential Uroselective Profile” (Molecules : A Journal of Synthetic Chemistry and Natural …, 2018).

How the values were obtained:
α1-ARs = test: Radioligand binding, displacement of [3H]-Prazosin from α1-ARs on rat cerebral cortex; details: for Sα2/α1 (ratio of affinity for α2- and α1-ARs): Ki α2 / Ki α1; for Ki: [3H]-Prazosin, rat cerebral cortex, ± SEM, two independent experiments
Method: (§1) The pharmacological profile of the new compounds was assessed in radioligand-binding assays as the ability to displace [^3H]-Prazosin or [^3H]-Clonidine from α1- and α2-ARs, respectively, on rat cerebral cortex. The inhibition constants (Ki) were calculated from the Cheng-Prusoff equation [24].
(§2) The affinity of the obtained compounds was evaluated by radioligand-binding assays (the ability to displace [^3H]-Prazosin and [^3H]-Clonidine from α1- and α2-ARs, respectively) on rat cerebral cortex. The brains are homogenized in 20 volumes of an ice-cold 50 mM Tris-HCl buffer (pH 7.6) and is centrifuged (MPW Med. Instruments, Warsaw, Poland) at 20,000 g for 20 min (0–4 °C). The cell pellet is resuspended in the Tris-HCl buffer and centrifuged again. Radioligand-binding assays are performed in plates (MultiScreen/Millipore, Burlington, MA, USA). The final incubation mixture (final volume 300 µL) consisted of 240 µL of the membrane suspension, 30 µL of [^3H]-Prazosin (0.2 nM) or [^3H]-Clonidine (2 nM) solution, and 30 µL of the buffer containing seven to eight concentrations (10^−11 to 10^−4 M) of the tested compounds. For measuring the unspecific binding, phentolamine, 10 µM (in the case of [^3H]-Prazosin) and clonidine, and 10 µM (in the case of [^3H]-Clonidine), were applied. The incubation was terminated by rapid filtration over glass fiber filters (Whatman GF/C, Sigma-Aldrich) using a vacuum manifold (Millipore). The filters were then washed twice with the assay buffer and placed in scintillation vials with a liquid-scintillation cocktail. Radioactivity was measured in a WALLAC 1409 DSA liquid-scintillation counter (BioSurplus, San Diego, CA, USA). All the assays were made in duplicate.

α2-ARs = test: Radioligand binding, displacement of [3H]-Clonidine from α2-ARs on rat cerebral cortex; details: ± SEM, two independent experiments
Method: as §1, §2

human 5-HT7Rs = target: T1, human 5-HT7Rs (Homo sapiens, UniProt P34969); test: Radioligand binding screening [3H]-LSD, membranes from CHO-K1 cells; details: for inhibition at 1 µM: 10^−6 M, read-out: 5-HT7 %inh @ 10^−6 M; for inhibition at 0.1 µM: 10^−7 M, read-out: 5-HT7 %inh @ 10^−7 M
T1 construct: expressed in transfected cells; host or cells: CHO-K1
T1 sequence (P34969 whole entry): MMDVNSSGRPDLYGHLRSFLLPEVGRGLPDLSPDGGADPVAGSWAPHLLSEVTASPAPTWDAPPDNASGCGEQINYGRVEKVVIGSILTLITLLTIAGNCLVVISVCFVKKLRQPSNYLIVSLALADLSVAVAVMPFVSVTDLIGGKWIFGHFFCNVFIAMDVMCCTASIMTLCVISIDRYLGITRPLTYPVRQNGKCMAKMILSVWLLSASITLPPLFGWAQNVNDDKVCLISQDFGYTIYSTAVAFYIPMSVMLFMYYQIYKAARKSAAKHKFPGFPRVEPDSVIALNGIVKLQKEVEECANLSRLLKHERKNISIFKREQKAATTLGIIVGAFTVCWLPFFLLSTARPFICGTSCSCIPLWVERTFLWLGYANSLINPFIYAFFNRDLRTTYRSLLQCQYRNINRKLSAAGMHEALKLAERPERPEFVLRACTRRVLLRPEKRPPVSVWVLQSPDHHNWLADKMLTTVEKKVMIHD
Method: Experiments were performed using membranes from CHO-K1 cells stably transfected with the human 5-HT1A and 5-HT7Rs according to the methods previously described.
Binding experiments were conducted in 96-well microplates in a total volume of 250 μL of appropriate buffers. The composition of the assay buffers was as follows: 50 mM Tris-HCl, 0.1 mM EDTA, 10 mM MgCl2. The reaction mix included 50 μL solution of test compound, 50 μL of radioligand, and 150 μL of diluted membranes. All assays were incubated for 1 h (5-HT1ARs) or 2 h (5-HT7Rs) at 37 °C. Radioactivity was counted in MicroBeta2 scintillation counter (PerkinElmer, Waltham, MA, USA). Nonspecific binding is defined with 10 µM of 5-HT and 10 µM of methiothepine in 5-HT1AR and 5-HT7R binding experiments, respectively. […]

histaminic H1R = target: T2, histaminic H1R (Homo sapiens, UniProt P35367); test: Off-target panel at Eurofins Cerep, H1; assay type: binding; details: read-out: inhibition at histamine H1
T2 construct: Eurofins (Celle-Lévescault, France)
T2 sequence (P35367 whole entry): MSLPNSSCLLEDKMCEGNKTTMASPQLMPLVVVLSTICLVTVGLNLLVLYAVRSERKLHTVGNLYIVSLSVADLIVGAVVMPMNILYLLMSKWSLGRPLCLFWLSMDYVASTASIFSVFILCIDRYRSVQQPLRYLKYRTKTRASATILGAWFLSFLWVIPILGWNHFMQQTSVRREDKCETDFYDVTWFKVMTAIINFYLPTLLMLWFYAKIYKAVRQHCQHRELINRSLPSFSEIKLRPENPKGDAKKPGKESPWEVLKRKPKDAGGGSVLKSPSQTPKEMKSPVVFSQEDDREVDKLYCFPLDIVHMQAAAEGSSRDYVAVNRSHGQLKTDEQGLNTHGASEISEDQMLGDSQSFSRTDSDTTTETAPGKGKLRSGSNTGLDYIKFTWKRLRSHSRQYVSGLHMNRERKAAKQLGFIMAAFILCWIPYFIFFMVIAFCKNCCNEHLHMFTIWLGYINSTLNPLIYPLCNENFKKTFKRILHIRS
Method: (§3) Finally, the percentage of inhibition for selected compounds 9 and 10 for off-target histaminic H1R, muscarinic M1R, adrenergic β1-AR and potassium ion channel hERG were assessed at Eurofins (Celle-Lévescault, France) according to the procedure online at www.eurofins.com.

muscarinic M1R = target: T3, muscarinic M1R (Homo sapiens, UniProt P11229); test: Off-target panel at Eurofins Cerep, M1; assay type: binding
T3 construct: Eurofins (Celle-Lévescault, France)
T3 sequence (P11229 1-460): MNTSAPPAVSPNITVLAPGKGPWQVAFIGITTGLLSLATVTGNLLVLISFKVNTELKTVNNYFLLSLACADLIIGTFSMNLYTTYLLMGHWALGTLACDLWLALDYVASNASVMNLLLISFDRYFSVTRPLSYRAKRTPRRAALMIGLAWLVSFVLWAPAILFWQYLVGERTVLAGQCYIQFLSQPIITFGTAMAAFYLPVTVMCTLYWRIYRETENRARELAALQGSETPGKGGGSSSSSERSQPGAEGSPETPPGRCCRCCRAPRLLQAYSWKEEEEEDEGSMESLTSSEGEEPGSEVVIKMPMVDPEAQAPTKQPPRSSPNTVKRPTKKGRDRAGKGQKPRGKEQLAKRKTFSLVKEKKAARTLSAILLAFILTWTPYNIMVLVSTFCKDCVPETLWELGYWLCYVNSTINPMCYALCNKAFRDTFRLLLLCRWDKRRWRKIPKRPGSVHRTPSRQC
Method: as §3

adrenergic β1-AR = target: T4, adrenergic β1-AR (Homo sapiens, UniProt P08588); test: Off-target panel at Eurofins Cerep, β1; assay type: binding
T4 construct: Eurofins (Celle-Lévescault, France)
T4 sequence (P08588 whole entry): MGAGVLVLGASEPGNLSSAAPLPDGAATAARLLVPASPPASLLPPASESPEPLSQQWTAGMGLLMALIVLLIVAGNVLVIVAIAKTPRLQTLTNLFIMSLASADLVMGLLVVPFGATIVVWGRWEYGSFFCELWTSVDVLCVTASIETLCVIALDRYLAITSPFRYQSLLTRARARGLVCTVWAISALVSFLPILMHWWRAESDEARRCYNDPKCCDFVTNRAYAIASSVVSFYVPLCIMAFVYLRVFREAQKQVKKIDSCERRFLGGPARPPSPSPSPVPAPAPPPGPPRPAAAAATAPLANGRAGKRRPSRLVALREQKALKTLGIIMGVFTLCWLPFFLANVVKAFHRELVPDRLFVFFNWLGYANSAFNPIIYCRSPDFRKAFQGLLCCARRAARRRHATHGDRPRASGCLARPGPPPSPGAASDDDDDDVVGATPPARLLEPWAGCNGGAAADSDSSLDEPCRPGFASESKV
Method: as §3

hERG potassium channel = target: T5, hERG potassium channel (Homo sapiens, UniProt Q12809); test: Off-target panel at Eurofins Cerep, hERG; assay type: binding; details: read-out: inhibition at hERG channels
T5 construct: Eurofins (Celle-Lévescault, France)
T5 sequence (Q12809 whole entry): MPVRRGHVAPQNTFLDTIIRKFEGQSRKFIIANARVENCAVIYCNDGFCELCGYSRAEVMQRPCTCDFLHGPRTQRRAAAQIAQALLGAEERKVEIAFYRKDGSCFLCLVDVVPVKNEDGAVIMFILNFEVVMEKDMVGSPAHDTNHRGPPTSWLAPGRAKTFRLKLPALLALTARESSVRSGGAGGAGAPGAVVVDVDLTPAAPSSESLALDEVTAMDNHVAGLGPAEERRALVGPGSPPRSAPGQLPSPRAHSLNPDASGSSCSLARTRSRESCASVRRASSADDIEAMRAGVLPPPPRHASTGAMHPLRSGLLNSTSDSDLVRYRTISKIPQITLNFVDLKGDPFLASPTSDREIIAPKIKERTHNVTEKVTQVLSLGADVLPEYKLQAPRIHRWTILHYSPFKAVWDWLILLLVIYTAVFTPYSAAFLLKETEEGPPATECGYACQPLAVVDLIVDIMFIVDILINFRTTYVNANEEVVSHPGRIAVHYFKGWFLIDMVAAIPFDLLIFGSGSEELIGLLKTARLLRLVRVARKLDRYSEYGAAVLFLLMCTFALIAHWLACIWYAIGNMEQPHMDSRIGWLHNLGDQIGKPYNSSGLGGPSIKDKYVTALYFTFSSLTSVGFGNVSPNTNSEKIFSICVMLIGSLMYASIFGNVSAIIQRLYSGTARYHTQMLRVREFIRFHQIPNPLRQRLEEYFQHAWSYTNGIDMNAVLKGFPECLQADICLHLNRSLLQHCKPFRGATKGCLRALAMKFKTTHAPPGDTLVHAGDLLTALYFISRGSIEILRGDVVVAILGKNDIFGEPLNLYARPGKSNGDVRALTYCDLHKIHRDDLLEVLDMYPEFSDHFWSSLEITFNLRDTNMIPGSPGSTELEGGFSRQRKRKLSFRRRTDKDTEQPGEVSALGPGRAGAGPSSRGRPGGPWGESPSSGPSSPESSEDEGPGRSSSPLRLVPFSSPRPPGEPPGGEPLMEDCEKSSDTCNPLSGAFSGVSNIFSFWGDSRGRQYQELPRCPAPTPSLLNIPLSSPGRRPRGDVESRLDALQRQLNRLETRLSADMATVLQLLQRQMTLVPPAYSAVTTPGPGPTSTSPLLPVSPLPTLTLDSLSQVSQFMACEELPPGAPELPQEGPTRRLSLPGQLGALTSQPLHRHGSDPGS
Method: as §3

In the case of `O=S(=O)(NCC1CCN(CCOc2ccccc2OCC(F)(F)F)CC1)c1cccc(Cl)c1F` [Compound 9, 3-Chloro-2-fluoro-N-[(1-{2-[(2,2,2-trifluoroethoxy)phenoxy]ethyl}piperidin-4-yl)methyl]benzenesulfonamide], the “Sα2/α1 (ratio of affinity for α2- and α1-ARs)” value (α1-ARs) is reported as 17, the Ki (α1-ARs) is reported as 50 ± 2 nM and the Ki (α2-ARs) is reported as 858 ± 69 nM. The inhibition at 1 µM (human 5-HT7Rs) was 93%, the inhibition at 0.1 µM (human 5-HT7Rs) was 57% and the inhibition at 1 µM (histaminic H1R) was under 50%. It also gave an inhibition at 1 µM (muscarinic M1R) of under 50%, an inhibition at 1 µM (adrenergic β1-AR) of under 50% and an inhibition at 1 µM (hERG potassium channel) of under 50%.

In the case of `O=S(=O)(NCC1CCN(CCOc2ccccc2OCC(F)(F)F)CC1)c1cc(Cl)ccc1F` [Compound 10, 5-Chloro-2-fluoro-N-[(1-{2-[(2,2,2-trifluoroethoxy)phenoxy]ethyl}piperidin-4-yl)methyl]benzenesulfonamide], the “Sα2/α1 (ratio of affinity for α2- and α1-ARs)” value (α1-ARs) is reported as 23, the Ki (α1-ARs) is reported as 26 ± 1 nM and the Ki (α2-ARs) is reported as 579 ± 20 nM. For the same molecule, the inhibition at 1 µM (human 5-HT7Rs) was 94%, the inhibition at 0.1 µM (human 5-HT7Rs) was 61% and the inhibition at 1 µM (histaminic H1R) was under 50%. It also gave an inhibition at 1 µM (muscarinic M1R) of under 50%, an inhibition at 1 µM (adrenergic β1-AR) of under 50% and an inhibition at 1 µM (hERG potassium channel) of under 50%.
